The values below come from patent US12704504B2, “Derivatization of beta-lactam antibiotics as calibrators/ISTD in massspec measurements” (Roche Diagnostics Operations, Inc., priority 2019, dated 2026).

A short description of this data set: Stability in water at room temperature, LC-MS/MS peak areas over 16 h. It counts as physicochemical. As to conditions: 5 μg/mL, 0-16 h. The source says:
The stability of native Piperacillin as well as its hydrolyzed forms was investigated (compounds 5, 9a, 9b and 10, respectively. From the hydrolysis pathway of Piperacillin (compound 5, see schematic drawing in FIG. 1) it is obvious that this compound hydrolyzed both on the piperazin ring and the lactam moiety, only one of both compounds is monitored to account for the loss or degradation of native Piperacillin (compound 5)). To this end, these compounds were freshly weighed and dissolved in water at a concentration of 1 mg/mL by rolling or stirring for 15 minutes at room temperature. Subsequently, these compounds were diluted to 5 μg/mL and measured with a suitable LC-MS/MS method at timepoints 0, 2, 4, 6, 8 and 16 h. For this, a Sunshell C18 (2.6 μm, 2.1 mm×50 mm) column with Solvent A: water with 0.1% HCOOH and Solvent B: CH3CN with 0.1% HCOOH and a flow of 0.6 mL per minute were used on an Agilent Infinity II multisampler/Pump system connected to an AB Sciex 6500+MS. The peaks were integrated using MultiQuant software and the areas of these peaks depicted in the graphs in FIGS. 2A and 2B.
The stability of double butylamide variants of Piperacillin (compound 7, see FIG. 4) was investigated at 2 MRMs using the identical protocol as in Examples 1.

For `CCN1CCN(C(=O)N[C@@H](C(=O)N[C@@H]2C(=O)N3[C@@H]2SC(C)(C)[C@@H]3C(=O)O)c2ccccc2)C(=O)C1=O` [Piperacillin], the “course of obtained peak-areas over time” value is given as “decreasing”.
